{"source": "ChEMBL document CHEMBL1201862", "about": "“PubChem BioAssay data set” (2004)", "assay_type_in_all_cases": "functional", "key": {"[1]": {"molecular_target": "Cyclin-dependent kinase 19 (Homo sapiens, UniProt Q9BWU1)", "test": "Navigating the Kinome. Panel member name: CDC2L6"}, "Aurora kinase B": {"molecular_target": "Aurora kinase B (Homo sapiens, UniProt Q96GD4)", "sequence (Q96GD4 whole entry)": "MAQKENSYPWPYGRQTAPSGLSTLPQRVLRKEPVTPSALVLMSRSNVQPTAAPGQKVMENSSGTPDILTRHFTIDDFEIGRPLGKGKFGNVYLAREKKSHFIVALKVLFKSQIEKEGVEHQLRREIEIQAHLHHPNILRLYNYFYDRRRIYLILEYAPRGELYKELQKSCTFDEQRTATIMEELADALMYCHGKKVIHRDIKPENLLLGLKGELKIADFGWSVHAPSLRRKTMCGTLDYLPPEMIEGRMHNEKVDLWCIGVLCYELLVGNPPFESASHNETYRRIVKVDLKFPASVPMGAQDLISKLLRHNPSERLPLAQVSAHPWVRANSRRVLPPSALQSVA"}, "Aurora kinase A": {"molecular_target": "Aurora kinase A (Homo sapiens, UniProt O14965)"}, "[2]": {"molecular_target": "Vascular endothelial growth factor receptor 2 (Homo sapiens, UniProt P35968)", "sequence (P35968 whole entry)": "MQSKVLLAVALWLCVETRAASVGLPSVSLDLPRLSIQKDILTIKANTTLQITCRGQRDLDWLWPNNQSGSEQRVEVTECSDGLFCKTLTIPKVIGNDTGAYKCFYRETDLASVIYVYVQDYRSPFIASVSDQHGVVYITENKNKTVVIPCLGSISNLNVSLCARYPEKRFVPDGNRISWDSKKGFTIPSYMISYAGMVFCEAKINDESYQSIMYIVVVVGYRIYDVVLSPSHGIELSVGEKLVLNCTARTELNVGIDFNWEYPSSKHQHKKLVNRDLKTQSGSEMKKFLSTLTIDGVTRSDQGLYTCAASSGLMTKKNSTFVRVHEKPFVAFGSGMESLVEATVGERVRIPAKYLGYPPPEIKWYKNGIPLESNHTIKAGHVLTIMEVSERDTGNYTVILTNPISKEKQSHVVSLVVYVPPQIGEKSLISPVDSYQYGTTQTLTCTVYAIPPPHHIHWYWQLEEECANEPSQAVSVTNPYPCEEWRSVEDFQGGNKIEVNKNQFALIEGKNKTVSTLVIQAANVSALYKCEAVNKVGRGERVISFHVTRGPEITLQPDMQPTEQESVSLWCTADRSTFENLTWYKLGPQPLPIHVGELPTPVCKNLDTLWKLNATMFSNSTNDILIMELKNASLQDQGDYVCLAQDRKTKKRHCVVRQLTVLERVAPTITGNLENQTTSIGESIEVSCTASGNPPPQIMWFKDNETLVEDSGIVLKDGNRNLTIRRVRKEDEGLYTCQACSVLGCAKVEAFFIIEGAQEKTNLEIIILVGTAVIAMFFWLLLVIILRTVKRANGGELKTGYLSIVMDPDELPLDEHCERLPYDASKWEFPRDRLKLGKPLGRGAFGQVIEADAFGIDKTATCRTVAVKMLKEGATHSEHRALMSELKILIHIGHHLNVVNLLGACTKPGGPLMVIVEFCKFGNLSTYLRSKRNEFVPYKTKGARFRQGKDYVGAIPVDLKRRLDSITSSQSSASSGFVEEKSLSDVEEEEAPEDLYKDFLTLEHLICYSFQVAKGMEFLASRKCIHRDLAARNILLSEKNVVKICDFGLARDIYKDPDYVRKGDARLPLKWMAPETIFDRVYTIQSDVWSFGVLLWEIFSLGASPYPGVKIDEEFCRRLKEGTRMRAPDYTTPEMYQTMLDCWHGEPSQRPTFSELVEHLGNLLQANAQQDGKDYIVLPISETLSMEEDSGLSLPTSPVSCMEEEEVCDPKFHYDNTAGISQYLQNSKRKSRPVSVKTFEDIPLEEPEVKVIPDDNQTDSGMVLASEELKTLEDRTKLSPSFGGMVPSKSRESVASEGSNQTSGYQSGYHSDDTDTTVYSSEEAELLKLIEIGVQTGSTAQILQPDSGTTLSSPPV"}, "[3]": {"molecular_target": "Calcium/calmodulin-dependent protein kinase type II subunit gamma (Homo sapiens, UniProt Q13555)"}, "[4]": {"molecular_target": "Receptor-type tyrosine-protein kinase FLT3 (Homo sapiens, UniProt P36888)"}, "[5]": {"molecular_target": "Protein kinase C delta type (Homo sapiens, UniProt Q05655)"}, "[6]": {"molecular_target": "Calcium/calmodulin-dependent protein kinase type II subunit delta (Homo sapiens, UniProt Q13557)"}, "[7]": {"molecular_target": "Calcium/calmodulin-dependent protein kinase type II subunit beta (Homo sapiens, UniProt Q13554)", "sequence (Q13554 whole entry)": "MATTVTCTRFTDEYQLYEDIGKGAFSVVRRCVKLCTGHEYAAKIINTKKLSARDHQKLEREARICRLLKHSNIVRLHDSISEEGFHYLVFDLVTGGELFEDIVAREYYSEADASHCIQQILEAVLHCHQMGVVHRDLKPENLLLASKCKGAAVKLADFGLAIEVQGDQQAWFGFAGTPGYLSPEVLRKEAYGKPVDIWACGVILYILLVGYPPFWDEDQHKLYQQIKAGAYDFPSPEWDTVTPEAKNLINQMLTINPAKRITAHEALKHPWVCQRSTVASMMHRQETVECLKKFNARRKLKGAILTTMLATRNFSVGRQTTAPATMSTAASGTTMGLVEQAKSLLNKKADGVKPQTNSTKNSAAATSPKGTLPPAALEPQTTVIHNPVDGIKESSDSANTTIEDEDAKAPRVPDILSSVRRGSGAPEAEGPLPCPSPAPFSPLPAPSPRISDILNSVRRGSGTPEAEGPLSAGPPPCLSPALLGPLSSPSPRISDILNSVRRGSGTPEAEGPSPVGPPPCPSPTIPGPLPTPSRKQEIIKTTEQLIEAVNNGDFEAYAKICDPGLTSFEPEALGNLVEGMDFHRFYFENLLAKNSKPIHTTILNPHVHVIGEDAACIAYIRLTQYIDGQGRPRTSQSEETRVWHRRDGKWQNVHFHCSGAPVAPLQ"}, "[8]": {"molecular_target": "Sphingosine 1-phosphate receptor 2 (Homo sapiens, UniProt O95136)", "test": "Late-stage fluorescence-based dose-response cell-based counterscreen assay to identify agonists of the Sphingosine 1-Phosphate Receptor 3 (S1P3): Sphingosine 1-Phosphate Receptor 2 (S1P2) agonist assay."}, "[9]": {"molecular_target": "T1, Sphingosine 1-phosphate receptor 4 (Homo sapiens, UniProt O95977)", "T1 sequence (O95977 whole entry)": "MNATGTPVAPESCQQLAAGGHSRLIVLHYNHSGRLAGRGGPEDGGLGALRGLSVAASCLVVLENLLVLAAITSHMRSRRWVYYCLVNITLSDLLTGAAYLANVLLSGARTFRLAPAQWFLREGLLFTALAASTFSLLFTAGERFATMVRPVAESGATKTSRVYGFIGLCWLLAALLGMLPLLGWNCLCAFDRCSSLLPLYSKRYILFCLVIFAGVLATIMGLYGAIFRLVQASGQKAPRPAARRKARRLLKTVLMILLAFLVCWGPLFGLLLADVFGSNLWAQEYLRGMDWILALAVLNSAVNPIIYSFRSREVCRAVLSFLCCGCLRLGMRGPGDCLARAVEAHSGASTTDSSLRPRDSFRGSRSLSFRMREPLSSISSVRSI", "test": "Late-stage fluorescence-based dose-response cell-based counterscreen assay to identify agonists of the Sphingosine 1-Phosphate Receptor 3 (S1P3): Sphingosine 1-Phosphate Receptor 4 (S1P4) agonist assay."}, "[10]": {"molecular_target": "Cyclin-dependent kinase 9 (Homo sapiens, UniProt P50750)"}, "[11]": {"molecular_target": "Cell division cycle 7-related protein kinase (Homo sapiens, UniProt O00311)", "sequence (O00311 whole entry)": "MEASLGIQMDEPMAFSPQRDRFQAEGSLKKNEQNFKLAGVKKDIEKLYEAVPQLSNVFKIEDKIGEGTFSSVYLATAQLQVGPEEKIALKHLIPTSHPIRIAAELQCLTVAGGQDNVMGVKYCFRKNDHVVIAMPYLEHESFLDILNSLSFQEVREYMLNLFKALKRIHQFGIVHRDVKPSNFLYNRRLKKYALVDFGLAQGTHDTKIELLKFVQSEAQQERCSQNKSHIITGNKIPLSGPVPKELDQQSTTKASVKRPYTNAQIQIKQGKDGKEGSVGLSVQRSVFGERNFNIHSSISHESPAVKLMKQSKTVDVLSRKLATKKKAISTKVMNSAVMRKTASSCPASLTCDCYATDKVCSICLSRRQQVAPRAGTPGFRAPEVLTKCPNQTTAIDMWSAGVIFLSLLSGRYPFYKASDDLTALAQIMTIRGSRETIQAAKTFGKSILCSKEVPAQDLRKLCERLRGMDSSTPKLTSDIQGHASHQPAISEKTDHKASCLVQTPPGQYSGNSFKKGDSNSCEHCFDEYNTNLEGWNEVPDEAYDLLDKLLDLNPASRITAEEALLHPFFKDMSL"}, "[12]": {"molecular_target": "Serine/threonine-protein kinase pim-1 (Homo sapiens, UniProt P11309)"}, "[13]": {"molecular_target": "cAMP-dependent protein kinase catalytic subunit alpha (Homo sapiens, UniProt P17612)"}, "[14]": {"molecular_target": "Cyclin-dependent kinase 7 (Homo sapiens, UniProt P50613)", "sequence (P50613 whole entry)": "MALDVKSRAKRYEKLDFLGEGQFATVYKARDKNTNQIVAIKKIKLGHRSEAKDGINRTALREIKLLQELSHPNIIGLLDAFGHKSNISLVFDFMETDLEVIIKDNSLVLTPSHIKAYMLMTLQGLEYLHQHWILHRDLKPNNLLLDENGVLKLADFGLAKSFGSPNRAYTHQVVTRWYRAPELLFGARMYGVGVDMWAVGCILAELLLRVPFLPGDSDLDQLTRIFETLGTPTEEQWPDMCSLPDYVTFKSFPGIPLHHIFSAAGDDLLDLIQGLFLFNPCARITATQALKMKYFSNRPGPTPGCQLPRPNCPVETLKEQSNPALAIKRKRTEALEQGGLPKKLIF"}, "[15]": {"molecular_target": "Interleukin-1 receptor-associated kinase 4 (Homo sapiens, UniProt Q9NWZ3)", "sequence (Q9NWZ3 whole entry)": "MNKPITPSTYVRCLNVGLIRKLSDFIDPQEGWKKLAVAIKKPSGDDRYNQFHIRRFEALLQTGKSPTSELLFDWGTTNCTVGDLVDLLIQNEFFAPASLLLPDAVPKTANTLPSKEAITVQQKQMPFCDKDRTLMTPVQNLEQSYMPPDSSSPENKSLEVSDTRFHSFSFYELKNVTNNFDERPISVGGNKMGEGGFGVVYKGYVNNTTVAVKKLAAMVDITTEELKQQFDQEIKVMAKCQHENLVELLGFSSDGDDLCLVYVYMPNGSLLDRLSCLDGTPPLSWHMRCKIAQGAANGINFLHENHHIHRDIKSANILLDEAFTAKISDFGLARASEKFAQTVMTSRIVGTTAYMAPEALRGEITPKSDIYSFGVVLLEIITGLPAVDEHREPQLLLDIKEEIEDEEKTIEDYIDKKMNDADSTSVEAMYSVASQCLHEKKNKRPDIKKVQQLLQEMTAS"}, "[16]": {"molecular_target": "Glycogen synthase kinase-3 beta (Homo sapiens, UniProt P49841)"}, "[17]": {"molecular_target": "Homeodomain-interacting protein kinase 2 (Homo sapiens, UniProt Q9H2X6)"}, "[18]": {"test": "Luminescence Cell-Based Dose Confirmation HTS to Identify Inhibitors of Platelet Dense Granule Release. [Related pubchem assays: 1663 (Primary HTS), 1678 (Summary of Project)]"}, "[19]": {"molecular_target": "T2, High affinity choline transporter 1 (Homo sapiens, UniProt Q9GZV3)", "T2 sequence (Q9GZV3 whole entry)": "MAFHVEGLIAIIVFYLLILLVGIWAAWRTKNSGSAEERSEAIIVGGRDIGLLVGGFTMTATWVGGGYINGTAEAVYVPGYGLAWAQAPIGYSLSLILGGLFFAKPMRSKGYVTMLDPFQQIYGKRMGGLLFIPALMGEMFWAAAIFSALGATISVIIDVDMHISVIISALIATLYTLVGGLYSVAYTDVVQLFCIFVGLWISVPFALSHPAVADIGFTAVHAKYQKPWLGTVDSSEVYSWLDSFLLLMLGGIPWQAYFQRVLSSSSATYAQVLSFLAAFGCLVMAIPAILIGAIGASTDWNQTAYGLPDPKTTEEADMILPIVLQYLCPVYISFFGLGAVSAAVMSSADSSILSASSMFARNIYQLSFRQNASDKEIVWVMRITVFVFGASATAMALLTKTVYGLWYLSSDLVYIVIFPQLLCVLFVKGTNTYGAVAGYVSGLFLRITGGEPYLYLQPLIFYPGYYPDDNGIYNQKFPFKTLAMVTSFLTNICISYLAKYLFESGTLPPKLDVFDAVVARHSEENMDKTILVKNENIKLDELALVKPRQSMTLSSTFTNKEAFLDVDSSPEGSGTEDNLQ", "test": "CHT inhibitors, dose response, cell-based, 5-point CRC, membrane potential dye (AID 504840)"}, "[20]": {"molecular_target": "T2, High affinity choline transporter 1", "test": "CHT inhibitors, dose response, cell-based, 10-point CRC, membrane potential dye (AID 588401);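 note: membrane potential dye fluorescence of choline-evoked depolarization via CHT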"}, "[21]": {"molecular_target": "Dual specificity protein kinase CLK2 (Homo sapiens, UniProt P49760)"}, "[22]": {"molecular_target": "Mitogen-activated protein kinase kinase kinase kinase 2 (Homo sapiens, UniProt Q12851)"}, "[23]": {"molecular_target": "Serine/threonine-protein kinase 17A (Homo sapiens, UniProt Q9UEE5)"}, "Misshapen-like kinase 1": {"molecular_target": "Misshapen-like kinase 1 (Homo sapiens, UniProt Q8N4C8)", "sequence (Q8N4C8 whole entry)": "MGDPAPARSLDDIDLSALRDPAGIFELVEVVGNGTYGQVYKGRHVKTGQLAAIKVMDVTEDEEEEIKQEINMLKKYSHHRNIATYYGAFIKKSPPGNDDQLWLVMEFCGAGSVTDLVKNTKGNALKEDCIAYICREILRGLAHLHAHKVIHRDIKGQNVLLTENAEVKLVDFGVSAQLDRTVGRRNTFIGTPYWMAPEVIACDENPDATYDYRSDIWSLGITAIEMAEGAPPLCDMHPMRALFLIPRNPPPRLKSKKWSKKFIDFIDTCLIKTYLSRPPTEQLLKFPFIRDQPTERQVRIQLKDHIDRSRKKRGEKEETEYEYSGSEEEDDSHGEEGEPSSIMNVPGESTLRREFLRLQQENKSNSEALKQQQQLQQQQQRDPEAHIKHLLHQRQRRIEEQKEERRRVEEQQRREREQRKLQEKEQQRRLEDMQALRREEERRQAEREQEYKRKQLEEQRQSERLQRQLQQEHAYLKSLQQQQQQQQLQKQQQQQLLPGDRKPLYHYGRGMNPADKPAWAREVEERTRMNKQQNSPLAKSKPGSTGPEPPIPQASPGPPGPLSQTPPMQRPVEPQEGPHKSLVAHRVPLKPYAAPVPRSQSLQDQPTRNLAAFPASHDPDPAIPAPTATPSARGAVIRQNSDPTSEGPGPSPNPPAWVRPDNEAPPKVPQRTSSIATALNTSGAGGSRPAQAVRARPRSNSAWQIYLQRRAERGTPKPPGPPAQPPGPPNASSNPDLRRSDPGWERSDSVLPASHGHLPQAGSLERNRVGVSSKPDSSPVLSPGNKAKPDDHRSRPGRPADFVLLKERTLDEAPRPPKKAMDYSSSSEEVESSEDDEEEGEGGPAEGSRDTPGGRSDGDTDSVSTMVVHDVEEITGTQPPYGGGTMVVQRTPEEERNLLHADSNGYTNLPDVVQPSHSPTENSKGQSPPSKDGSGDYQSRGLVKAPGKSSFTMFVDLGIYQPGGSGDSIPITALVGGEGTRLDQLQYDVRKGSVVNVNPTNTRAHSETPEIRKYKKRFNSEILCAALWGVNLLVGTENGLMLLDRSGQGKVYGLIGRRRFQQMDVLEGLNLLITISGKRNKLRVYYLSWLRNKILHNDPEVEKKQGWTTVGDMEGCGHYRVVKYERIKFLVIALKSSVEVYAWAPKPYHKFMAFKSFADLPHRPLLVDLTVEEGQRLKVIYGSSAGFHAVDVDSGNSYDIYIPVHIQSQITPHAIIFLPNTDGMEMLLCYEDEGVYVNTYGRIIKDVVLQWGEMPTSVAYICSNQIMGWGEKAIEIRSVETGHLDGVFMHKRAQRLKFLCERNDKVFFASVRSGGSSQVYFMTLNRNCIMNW"}, "Melanocortin receptor 4": {"molecular_target": "Melanocortin receptor 4 (Homo sapiens, UniProt P32245)", "test": "MC4R antagonist potency on cAMP, dose response, cell-based, TR-FRET, biased antagonists (AID 602298);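 note: antagonist potency against agonist-stimulated cAMP production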"}, "[24]": {"test": "nonselective inhibitors of cellular cAMP signaling, dose response, counter-screen for MC4R biased antagonist project, cell-based, TR-FRET cAMP detection (AID 602305);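 note: U2OS cells stimulated with forskolin near its EC80 as the cAMP inducer; potency is for inhibition of forskolin-stimulated cAMP signaling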"}}, "note": "Activity calls are given as the source filed them."}
{"smiles": "O=C(Nc1cccc(-c2nn3ccccc3c2-c2ccnc(Nc3ccc4c(c3)CNCC4)n2)c1)c1c(F)cccc1F", "values": [{"measurement": "Ki", "setting": "[1]", "result": "20 nM (active)"}, {"measurement": "Ki", "setting": "Aurora kinase B", "result": "5.01 nM (active)"}, {"measurement": "Ki", "setting": "Aurora kinase A", "result": "200 nM (active)"}, {"measurement": "Ki", "setting": "[2]", "result": "12.6 nM (active)"}]}
{"smiles": "CCNc1nc(C)c(C=CC(C)(C)c2ccc(C(F)(F)F)cc2)c(NCC)n1", "values": [{"measurement": "Ki", "setting": "[3]", "result": "1580 nM (active)"}, {"measurement": "Ki", "setting": "[4]", "result": "1260 nM (active)"}, {"measurement": "Ki", "setting": "[5]", "result": "7940 nM (active)"}, {"measurement": "Ki", "setting": "[6]", "result": "2000 nM (active)"}, {"measurement": "Ki", "setting": "[7]", "result": "2000 nM (active)"}]}
{"smiles": "O=C(c1cc(C2CC2)on1)N(C1CCCCC1)C1CCOCC1", "values": [{"measurement": "EC50", "setting": "[8]", "result": "> 50000 nM (inactive)"}, {"measurement": "EC50", "setting": "[9]", "result": "> 50000 nM (inactive)"}]}
{"smiles": "CC(C)(CO)CCCNc1cc(-c2c[nH]c3ncccc23)cc(Cl)n1", "values": [{"measurement": "Ki", "setting": "[10]", "result": "158 nM (active)"}, {"measurement": "Ki", "setting": "[11]", "result": "0.631 nM (active)"}, {"measurement": "Ki", "setting": "[12]", "result": "398 nM (active)"}, {"measurement": "Ki", "setting": "[13]", "result": "31.6 nM (active)"}, {"measurement": "Ki", "setting": "[14]", "result": "79.4 nM (active)"}, {"measurement": "Ki", "setting": "[15]", "result": "1580 nM (active)"}, {"measurement": "Ki", "setting": "[16]", "result": "31.6 nM (active)"}, {"measurement": "Ki", "setting": "[17]", "result": "7.94 nM (active)"}]}
{"smiles": "Nc1ncnc2c1ncn2[C@@H]1O[C@H](CO)[C@@H](O)[C@H]1O", "note": "[ADENOSINE]", "values": [{"measurement": "EC50", "setting": "[18]", "result": "759 nM (active)"}, {"measurement": "IC50", "setting": "[19]", "result": "571 nM (active)"}, {"measurement": "IC50", "setting": "[20]", "result": "200 nM (active)"}]}
{"smiles": "Cc1n[nH]c2c1C(c1ccccc1F)C(C#N)=C(N)O2", "note": "(stereo not drawn)", "values": [{"measurement": "Ki", "setting": "[21]", "result": "7940 nM (active)"}, {"measurement": "Ki", "setting": "[22]", "result": "5010 nM (active)"}, {"measurement": "Ki", "setting": "[23]", "result": "2510 nM (active)"}, {"measurement": "Ki", "setting": "Misshapen-like kinase 1", "result": "5010 nM (active)"}]}
{"smiles": "CCN(CC)C(=O)C(C)N(C#N)c1nc(Cl)nc(N(C)C)n1", "note": "(stereo not drawn)", "values": [{"measurement": "IC50", "setting": "Melanocortin receptor 4", "result": "> 64600 nM (inactive)"}, {"measurement": "IC50", "setting": "[24]", "result": "> 64600 nM (inactive)"}]}
